From the NIST ThermoML archive (doi:10.1016/j.jct.2016.10.023)

Assay: xn = mol fraction of the nth substance listed
Settings: Constant-volume piezometry

CCCCC [pentane] + CCCO
Settings | mass density [kg/m3]
543.15 K, 9051 kPa, Fluid (supercritical or subcritical phases), x1 = 0.2 | 378.24
543.15 K, 9246 kPa, Fluid (supercritical or subcritical phases), x1 = 0.8 | 288.09
543.15 K, 9255 kPa, Fluid (supercritical or subcritical phases), x1 = 0.2 | 383.04
543.15 K, 9409 kPa, Fluid (supercritical or subcritical phases), x1 = 0.9 | 301.38
543.15 K, 9589 kPa, Fluid (supercritical or subcritical phases), x1 = 0.2 | 390.87
543.15 K, 9630 kPa, Fluid (supercritical or subcritical phases), x1 = 0.8 | 298.89
543.15 K, 9923 kPa, Fluid (supercritical or subcritical phases), x1 = 0.9 | 312.01
543.15 K, 10354 kPa, Fluid (supercritical or subcritical phases), x1 = 0.8 | 315.05
543.15 K, 11098 kPa, Fluid (supercritical or subcritical phases), x1 = 0.9 | 333.7
543.15 K, 11177 kPa, Fluid (supercritical or subcritical phases), x1 = 0.2 | 418.27
543.15 K, 11295 kPa, Fluid (supercritical or subcritical phases), x1 = 0.8 | 333.52
543.15 K, 11953 kPa, Fluid (supercritical or subcritical phases), x1 = 0.8 | 345.03
543.15 K, 12737 kPa, Fluid (supercritical or subcritical phases), x1 = 0.9 | 353.77
543.15 K, 13394 kPa, Fluid (supercritical or subcritical phases), x1 = 0.8 | 361.57
543.15 K, 15943 kPa, Fluid (supercritical or subcritical phases), x1 = 0.2 | 469.86
543.15 K, 19097 kPa, Fluid (supercritical or subcritical phases), x1 = 0.9 | 406.88
543.15 K, 19983 kPa, Fluid (supercritical or subcritical phases), x1 = 0.8 | 417.78
543.15 K, 22804 kPa, Fluid (supercritical or subcritical phases), x1 = 0.2 | 509.01
543.15 K, 31784 kPa, Fluid (supercritical or subcritical phases), x1 = 0.8 | 466.21
543.15 K, 33595 kPa, Fluid (supercritical or subcritical phases), x1 = 0.2 | 546.39
543.15 K, 42744 kPa, Fluid (supercritical or subcritical phases), x1 = 0.8 | 495.57
543.15 K, 49093 kPa, Fluid (supercritical or subcritical phases), x1 = 0.2 | 580.61
553.15 K, 1401 kPa, Gas, x1 = 0.8 | 22.49
553.15 K, 1675 kPa, Gas, x1 = 0.2 | 24.89
553.15 K, 2144 kPa, Gas, x1 = 0.8 | 36.64
553.15 K, 3159 kPa, Gas, x1 = 0.8 | 58.33
553.15 K, 3511 kPa, Gas, x1 = 0.2 | 52.93
553.15 K, 3789 kPa, Gas, x1 = 0.8 | 73.69
553.15 K, 4048 kPa, Fluid (supercritical or subcritical phases), x1 = 0.9 | 83.26
553.15 K, 4680 kPa, Gas, x1 = 0.2 | 91.28
553.15 K, 4938 kPa, Fluid (supercritical or subcritical phases), x1 = 0.8 | 106.25
553.15 K, 5296 kPa, Fluid (supercritical or subcritical phases), x1 = 0.9 | 123.17
553.15 K, 5319 kPa, Fluid (supercritical or subcritical phases), x1 = 0.2 | 114.19
553.15 K, 5611 kPa, Fluid (supercritical or subcritical phases), x1 = 0.9 | 133.93
553.15 K, 6054 kPa, Fluid (supercritical or subcritical phases), x1 = 0.8 | 140.1
553.15 K, 6100 kPa, Fluid (supercritical or subcritical phases), x1 = 0.2 | 150.13
553.15 K, 6344 kPa, Fluid (supercritical or subcritical phases), x1 = 0.9 | 163.72
553.15 K, 6388 kPa, Fluid (supercritical or subcritical phases), x1 = 0.8 | 155.82
553.15 K, 6521 kPa, Fluid (supercritical or subcritical phases), x1 = 0.2 | 175.35
553.15 K, 6714 kPa, Fluid (supercritical or subcritical phases), x1 = 0.2 | 189.36
553.15 K, 6741 kPa, Fluid (supercritical or subcritical phases), x1 = 0.8 | 169.54
553.15 K, 6874 kPa, Fluid (supercritical or subcritical phases), x1 = 0.8 | 175.77
553.15 K, 6982 kPa, Fluid (supercritical or subcritical phases), x1 = 0.9 | 189.18
553.15 K, 6985 kPa, Fluid (supercritical or subcritical phases), x1 = 0.8 | 180.56
553.15 K, 7102 kPa, Fluid (supercritical or subcritical phases), x1 = 0.2 | 219.77
553.15 K, 7277 kPa, Fluid (supercritical or subcritical phases), x1 = 0.9 | 202.08
553.15 K, 7296 kPa, Fluid (supercritical or subcritical phases), x1 = 0.8 | 192.88
553.15 K, 7439 kPa, Fluid (supercritical or subcritical phases), x1 = 0.2 | 245.11
553.15 K, 7620 kPa, Fluid (supercritical or subcritical phases), x1 = 0.2 | 258.81
553.15 K, 7669 kPa, Fluid (supercritical or subcritical phases), x1 = 0.2 | 262.51
553.15 K, 7760 kPa, Fluid (supercritical or subcritical phases), x1 = 0.9 | 220.36
553.15 K, 7786 kPa, Fluid (supercritical or subcritical phases), x1 = 0.8 | 213.54
553.15 K, 7792 kPa, Fluid (supercritical or subcritical phases), x1 = 0.2 | 271.95
553.15 K, 7945 kPa, Fluid (supercritical or subcritical phases), x1 = 0.8 | 219.29
553.15 K, 8057 kPa, Fluid (supercritical or subcritical phases), x1 = 0.2 | 290.1
553.15 K, 8082 kPa, Fluid (supercritical or subcritical phases), x1 = 0.9 | 232.72
553.15 K, 8169 kPa, Fluid (supercritical or subcritical phases), x1 = 0.9 | 236.18
553.15 K, 8267 kPa, Fluid (supercritical or subcritical phases), x1 = 0.9 | 240.57
553.15 K, 8315 kPa, Fluid (supercritical or subcritical phases), x1 = 0.8 | 234.36
553.15 K, 8323 kPa, Fluid (supercritical or subcritical phases), x1 = 0.2 | 306.36
553.15 K, 8361 kPa, Fluid (supercritical or subcritical phases), x1 = 0.9 | 243.88
553.15 K, 8384 kPa, Fluid (supercritical or subcritical phases), x1 = 0.2 | 310.58
553.15 K, 8538 kPa, Fluid (supercritical or subcritical phases), x1 = 0.2 | 318.29
553.15 K, 8586 kPa, Fluid (supercritical or subcritical phases), x1 = 0.8 | 244.98
553.15 K, 8982 kPa, Fluid (supercritical or subcritical phases), x1 = 0.8 | 258.18
553.15 K, 9164 kPa, Fluid (supercritical or subcritical phases), x1 = 0.2 | 340.74
553.15 K, 9236 kPa, Fluid (supercritical or subcritical phases), x1 = 0.2 | 343.52
553.15 K, 9433 kPa, Fluid (supercritical or subcritical phases), x1 = 0.8 | 272.13
553.15 K, 9589 kPa, Fluid (supercritical or subcritical phases), x1 = 0.9 | 281.59
553.15 K, 10042 kPa, Fluid (supercritical or subcritical phases), x1 = 0.8 | 287.95
553.15 K, 10274 kPa, Fluid (supercritical or subcritical phases), x1 = 0.9 | 301.23
553.15 K, 10469 kPa, Fluid (supercritical or subcritical phases), x1 = 0.8 | 298.75
553.15 K, 10491 kPa, Fluid (supercritical or subcritical phases), x1 = 0.2 | 378.05
553.15 K, 10735 kPa, Fluid (supercritical or subcritical phases), x1 = 0.2 | 382.84
